In patent US20200017496A1 (priority 2017, published 2020):
Values joined by “and” are separate entries in the source; they are usually repeats but may differ in a detail not shown here. Identical values can stand only once. Like-named read-outs stand apart in the source and are kept apart here.

Assays:
Experiment in all cases: MIC of compounds alone and combined with antibacterials, broth microdilution (CLSI)
Format in all cases: cell-based
[1] = test system: Klebsiella oxytoca (KOX) isolates; conditions: for MIC ATB in combination: AF1 @ 4 μg/mL; for MIC: Klebsiella oxytoca
Summary of the method: (§1)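 Compound MIC, and antibacterial MIC at each fixed compound level, taken by visual inspection as lowest concentration stopping growth. Inoculum: log-phase bacteria, final 5·10^5 CFU/mL, cation-adjusted Mueller-Hinton broth; 16-20 h, 35° C, ambient air.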

[2] = test system: Citrobacter koseri (CKR) isolates; conditions: for MIC ATB in combination: AF1 @ 4 μg/mL; for MIC: Citrobacter koseri
Summary of the method: as §1

[3] = test system: Salmonella typhimurium (STY) isolates; conditions: for MIC: Salmonella enterica, TYPHIMURIUM, strain STY S3371 (OXA-1)
Summary of the method: as §1

[4] = test system: Providencia rettgeri (PRE) isolates; conditions: for MIC: Providencia rettgeri
Summary of the method: as §1

[5] = test system: Citrobacter freundii (CFR) isolates
Summary of the method: as §1

[6] = test system: Enterobacter cloacae (ECL) isolates; conditions: for MIC: Enterobacter cloacae
Summary of the method: as §1

CC1(C)S[C@@H]2[C@H](NC(=O)[C@H](N)c3ccc(O)cc3)C(=O)N2[C@H]1C(=O)O [AMX, Amoxicillin]
16 µg/mL: MIC ATB in combination ([1]; KOX UFR223)
> 1020 µg/mL: MIC ([6]; strain ECL P99 (AmpC), ATB alone, read-out: MIC)
64 µg/mL: MIC ATB in combination ([1]; KOX UFR224) | MIC ATB in combination ([2]; CKO UFR150) | MIC ATB in combination ([5]; CFR UFR248, AF1 @ 4 μg/mL) | MIC ATB in combination ([6]; ECL UFR70, AF1 @ 4 μg/mL)
128 µg/mL and >256 µg/mL: MIC [5]
> 256 µg/mL: MIC ([1]; strain KOX UFR21 (TEM-1, CTX-M-15, OXA-48), ATB alone) | MIC ([2]; strain CKO ROU (TEM-1, SHV-12, CTX-M-15, OXA-1, OXA-48), ATB alone) | MIC ([3]; ATB alone) | MIC ([6]; strain ECL 2185D (OXA-163), ATB alone) | MIC ([6]; strain ECL 190310 (AmpC), ATB alone) | MIC ([6]; strain ECL 190408 (TEM-1, CTX-M-15, OXA-1), ATB alone) | MIC ([6]; strain ECL 200138 (AmpC), ATB alone) | MIC ([6]; strain ECL 200322 (TEM-1, CTX-M-15, OXA-1), ATB alone) | MIC ([6]; strain ECL 260033 (AmpC), ATB alone) | MIC ([6]; strain ECL 260253 (TEM-1, KPC-3), ATB alone) | MIC ([6]; strain ECL 260323 (AmpC), ATB alone) | MIC ([6]; strain ECL 260508 (TEM-1, CTX-M-15), ATB alone) | MIC ([6]; strain ECL NEM146383 (AmpC), ATB alone) | MIC ([6]; strain ECL UFR12 (CTX-M-9, OXA-48), ATB alone) | MIC ([6]; strain ECL UFR13 (TEM-1, SHV-12, CTX-M-9, OXA-48), ATB alone) | MIC ([6]; strain ECL UFR14 (TEM-1, SHV-12, CTX-M-15, DHA-1, OXA-1, OXA-48), ATB alone) | MIC ([6]; strain ECL UFR60 (TEM-1, CTX-M-15, KPC-2), ATB alone) | MIC ([6]; strain ECL UFR70 (TEM-1, CTX-M-15, CMY-2, OXA-1, Porin loss), ATB alone) | MIC ([6]; strain ECL UFR84 (TEM-1, AmpC, OXA-1), ATB alone) | MIC ([6]; strain ECL UFR85 (TEM-1, CTX-M-15, AmpC), ATB alone)
> 128 µg/mL: MIC [1] | MIC ([1]; strain KOX UFR21 (TEM-1, CTX-M-15, OXA-48), CLA @ 4 μg/ml+ ATB) | MIC ([1]; strain KOX UFR223 (SHV-11, OXA-48), ATB alone) | MIC ([1]; strain KOX UFR223 (SHV-11, OXA-48), CLA @ 4 μg/ml+ ATB) | MIC ([1]; strain KOX UFR224 (CTX-M-15, OXA-48), ATB alone) | MIC ([1]; strain KOX UFR224 (CTX-M-15, OXA-48), CLA @ 4 μg/ml+ ATB) | MIC ([2]; strain CKO ROU (TEM-1, SHV-12, CTX-M-15, OXA-1, OXA-48), CLA @ 4 μg/ml+ ATB) | MIC ([2]; strain CKO UFR149 (OXA-48), ATB alone) | MIC ([2]; strain CKO UFR149 (OXA-48), CLA @ 4 μg/ml+ ATB) | MIC ([2]; strain CKO UFR150 (TEM-1, OXA-48), ATB alone) | MIC ([2]; strain CKO UFR150 (TEM-1, OXA-48), CLA @ 4 μg/ml+ ATB) | MIC ([4]; ATB combined with CLA @ 4 μg/ml, strain PRE UFR236 (TEM-1, OXA-48)) | MIC ([4]; strain PRE UFR99 (OXA-1, OXA-181), ATB alone) | MIC ([4]; strain PRE UFR99 (OXA-1, OXA-181), CLA @ 4 μg/ml+ ATB) | MIC ([4]; ATB alone, strain PRE UFR236 (TEM-1, OXA-48)) | MIC ([5]; Citrobacter freundii) | MIC ([6]; ATB alone, strain ECL UFR197 (TEM-1, CTX-M-15, OXA-1, OXA-48)) | MIC ([6]; ATB alone, strain ECL UFR198 (TEM-1, SHV-12, CTX-M-15, DHA-1, OXA-1, OXA-48)) | MIC ([6]; ATB combined with CLA @ 4 μg/ml, strain ECL UFR197 (TEM-1, CTX-M-15, OXA-1, OXA-48)) | MIC ([6]; ATB combined with CLA @ 4 μg/ml, strain ECL UFR198 (TEM-1, SHV-12, CTX-M-15, DHA-1, OXA-1, OXA-48)) | MIC ([6]; strain ECL 2185D (OXA-163), CLA @ 4 μg/ml+ ATB) | MIC ([6]; strain ECL 190310 (AmpC), CLA @ 4 μg/ml+ ATB) | MIC ([6]; strain ECL 190408 (TEM-1, CTX-M-15, OXA-1), CLA @ 4 μg/ml+ ATB) | MIC ([6]; strain ECL 200138 (AmpC), CLA @ 4 μg/ml+ ATB) | MIC ([6]; strain ECL 200322 (TEM-1, CTX-M-15, OXA-1), CLA @ 4 μg/ml+ ATB) | MIC ([6]; strain ECL 260033 (AmpC), CLA @ 4 μg/ml+ ATB) | MIC ([6]; strain ECL 260253 (TEM-1, KPC-3), CLA @ 4 μg/ml+ ATB) | MIC ([6]; strain ECL 260323 (AmpC), CLA @ 4 μg/ml+ ATB) | MIC ([6]; strain ECL 260508 (TEM-1, CTX-M-15), CLA @ 4 μg/ml+ ATB) | MIC ([6]; strain ECL NEM146383 (AmpC), CLA @ 4 μg/ml+ ATB) | MIC ([6]; strain ECL UFR12 (CTX-M-9, OXA-48), CLA @ 4 μg/ml+ ATB) | MIC ([6]; strain ECL UFR13 (TEM-1, SHV-12, CTX-M-9, OXA-48), CLA @ 4 μg/ml+ ATB) | MIC ([6]; strain ECL UFR14 (TEM-1, SHV-12, CTX-M-15, DHA-1, OXA-1, OXA-48), CLA @ 4 μg/ml+ ATB) | MIC ([6]; strain ECL UFR60 (TEM-1, CTX-M-15, KPC-2), CLA @ 4 μg/ml+ ATB) | MIC ([6]; strain ECL UFR70 (TEM-1, CTX-M-15, CMY-2, OXA-1, Porin loss), CLA @ 4 μg/ml+ ATB) | MIC ([6]; strain ECL UFR84 (TEM-1, AmpC, OXA-1), CLA @ 4 μg/ml+ ATB) | MIC ([6]; strain ECL UFR85 (TEM-1, CTX-M-15, AmpC), CLA @ 4 μg/ml+ ATB) | MIC ([6]; strain ECL UFR194 (OXA-48), ATB alone) | MIC ([6]; strain ECL UFR194 (OXA-48), CLA @ 4 μg/ml+ ATB) | MIC ([6]; strain ECL UFR195 (TEM-1, CTX-M-15, OXA-1, OXA-48), ATB alone) | MIC ([6]; strain ECL UFR195 (TEM-1, CTX-M-15, OXA-1, OXA-48), CLA @ 4 μg/ml+ ATB) | MIC ([6]; strain ECL UFR196 (TEM-1, CTX-M-15, OXA-1, OXA-48), ATB alone) | MIC ([6]; strain ECL UFR196 (TEM-1, CTX-M-15, OXA-1, OXA-48), CLA @ 4 μg/ml+ ATB) | MIC ([6]; strain ECL UFR200 (TEM-1, SHV-12, KPC-2), ATB alone) | MIC ([6]; strain ECL UFR200 (TEM-1, SHV-12, KPC-2), CLA @ 4 μg/ml+ ATB)
>512 µg/mL: MIC ATB in combination ([4]; PRE UFR99, AF1 @ 4 μg/mL) | MIC ATB in combination ([5]; CFR UFR11, AF1 @ 4 μg/mL) | MIC ATB in combination ([5]; CFR UFR83, AF1 @ 4 μg/mL)
32 µg/mL: MIC ATB in combination ([2]; CKO ROU) | MIC ATB in combination ([5]; CFR UFR250, AF1 @ 4 μg/mL)
8 µg/mL: MIC ATB in combination ([6]; ECL 190408, AF1 @ 4 μg/mL)
128 µg/mL: MIC ATB in combination [3] | MIC ([3]; CLA @ 4 μg/ml+ ATB) | MIC ATB in combination [5] | MIC ATB in combination [6]
> 512 µg/mL: MIC ([6]; strain ECL P99 (AmpC), CLA @ 4 μg/ml+ ATB)
256 µg/mL: MIC ATB in combination ([1]; KOX UFR21) | MIC ATB in combination ([5]; CFR UFR146, AF1 @ 4 μg/mL) | MIC ATB in combination ([5]; CFR UFR249, AF1 @ 4 μg/mL) | MIC ATB in combination ([6]; ECL 200138, AF1 @ 4 μg/mL) | MIC ATB in combination ([6]; ECL 260033, AF1 @ 4 μg/mL) | MIC ATB in combination ([6]; ECL 260253, AF1 @ 4 μg/mL) | MIC ATB in combination ([6]; ECL 260323, AF1 @ 4 μg/mL) | MIC ATB in combination ([6]; ECL UFR13, AF1 @ 4 μg/mL) | MIC ATB in combination ([6]; ECL UFR85, AF1 @ 4 μg/mL) | MIC ATB in combination ([6]; ECL UFR194, AF1 @ 4 μg/mL) | MIC ATB in combination ([6]; ECL UFR200, AF1 @ 4 μg/mL) | MIC ATB in combination ([6]; strain ECL UFR195, antibacterial combined with AF1 @ 4 μg/mL) | MIC ATB in combination ([6]; strain ECL UFR197, antibacterial combined with AF1 @ 4 μg/mL)
512 µg/mL: MIC ATB in combination ([2]; CKO UFR149) | MIC ATB in combination ([4]; strain PRE UFR236, antibacterial combined with AF1 @ 4 μg/mL)
4 µg/mL: MIC ATB in combination ([1]; KOX UFR173) | MIC ATB in combination ([5]; strain CFR UFR253, antibacterial combined with AF1 @ 4 μg/mL) | MIC ATB in combination ([5]; strain CFR UFR254, antibacterial combined with AF1 @ 4 μg/mL)
